Results taken from ChEMBL document CHEMBL3856191, “Structural modifications at the 6-position of thieno[2,3-d]pyrimidines and their effects on potency at FLT3 for treatment of acute myeloid leukemia” (Eur J Med Chem, 2016).

How the values were obtained:
[1] = target: Tyrosine-protein kinase Lyn (Homo sapiens) (UniProt P07948); experiment: Inhibition of LYN (unknown origin) assessed as remaining activity at 10 uM in presence of [gamma-32P]ATP by […] assay
[2] = target: Mitogen-activated protein kinase 14 (Homo sapiens) (UniProt Q16539); experiment: Inhibition of human SAPK2a assessed as remaining activity at 10 uM in presence of [gamma-32P]ATP by […] assay
[3] = target: Tyrosine-protein kinase Blk (Homo sapiens) (UniProt P51451); experiment: Inhibition of BLK (unknown origin) assessed as remaining activity at 10 uM preincubated for 15 mins followed by substrate addition for 30 mins in presence of [gamma-32P]ATP by […] assay
[4] = target: Inhibitor of nuclear factor kappa-B kinase subunit alpha (Homo sapiens) (UniProt O15111); experiment: Inhibition of recombinant human IKK-alpha expressed in insect Sf21 cells assessed as remaining activity at 10 uM preincubated for 15 mins followed by IKKtide substrate addition for 30 mins in presence of [gamma-32P]ATP by […] assay
[5] = target: Mitogen-activated protein kinase 9 (Homo sapiens) (UniProt P45984); experiment: Inhibition of recombinant human JNK2alpha2 expressed in insect Sf21 cells assessed as remaining activity at 10 uM preincubated for 15 mins followed by ATF2 substrate addition for 30 mins in presence of [gamma-32P]ATP by […] assay
[6] = target: Non-receptor tyrosine-protein kinase TYK2 (Homo sapiens) (UniProt P29597); experiment: Inhibition of human TYK2 assessed as remaining activity at 10 uM in presence of [gamma-32P]ATP by […] assay
Non-receptor tyrosine-protein kinase TYK2 (Homo sapiens), sequence (P29597 whole entry): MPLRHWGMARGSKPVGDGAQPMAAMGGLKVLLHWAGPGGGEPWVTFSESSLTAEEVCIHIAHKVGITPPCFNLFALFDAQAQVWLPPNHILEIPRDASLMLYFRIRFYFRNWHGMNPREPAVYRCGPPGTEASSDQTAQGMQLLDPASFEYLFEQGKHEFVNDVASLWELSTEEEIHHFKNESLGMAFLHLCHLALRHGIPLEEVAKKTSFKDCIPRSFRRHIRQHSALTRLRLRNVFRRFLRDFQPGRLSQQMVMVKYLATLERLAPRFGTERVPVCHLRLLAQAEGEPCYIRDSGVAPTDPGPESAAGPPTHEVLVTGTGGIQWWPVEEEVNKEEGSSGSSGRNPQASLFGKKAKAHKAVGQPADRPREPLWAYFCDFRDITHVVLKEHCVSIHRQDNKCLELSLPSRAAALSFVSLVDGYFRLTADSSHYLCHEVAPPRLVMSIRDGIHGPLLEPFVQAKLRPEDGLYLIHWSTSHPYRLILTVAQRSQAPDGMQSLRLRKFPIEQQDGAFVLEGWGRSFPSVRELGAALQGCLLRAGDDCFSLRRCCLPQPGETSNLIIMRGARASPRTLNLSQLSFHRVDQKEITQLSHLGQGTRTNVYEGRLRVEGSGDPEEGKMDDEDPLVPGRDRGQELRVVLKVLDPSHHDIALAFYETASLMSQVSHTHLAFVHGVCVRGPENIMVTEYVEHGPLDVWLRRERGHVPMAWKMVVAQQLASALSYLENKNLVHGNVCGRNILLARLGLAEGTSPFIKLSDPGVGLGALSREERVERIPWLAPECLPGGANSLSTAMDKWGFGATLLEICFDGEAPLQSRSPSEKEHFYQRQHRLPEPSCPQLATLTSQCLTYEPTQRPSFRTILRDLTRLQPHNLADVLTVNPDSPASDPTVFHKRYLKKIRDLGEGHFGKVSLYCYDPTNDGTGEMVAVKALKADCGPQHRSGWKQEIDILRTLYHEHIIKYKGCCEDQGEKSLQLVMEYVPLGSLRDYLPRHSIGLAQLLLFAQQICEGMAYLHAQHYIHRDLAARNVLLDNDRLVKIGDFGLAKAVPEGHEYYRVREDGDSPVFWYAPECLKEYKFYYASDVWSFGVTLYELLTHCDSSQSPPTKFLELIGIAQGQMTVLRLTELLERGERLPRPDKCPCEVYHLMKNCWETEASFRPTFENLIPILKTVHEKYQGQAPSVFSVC

[7] = target: Aurora kinase B (Homo sapiens) (UniProt Q96GD4); experiment: Inhibition of human AURORA B assessed as remaining activity at 10 uM preincubated for 15 mins followed by substrate addition for 30 mins in presence of [gamma-32P]ATP by […] assay
cells = conditions: Homo sapiens, K562, 48 h
Description: Growth inhibition of human K562 cells after 48 hrs by XTT assay

[8] = target: Tyrosine-protein kinase SYK (Homo sapiens) (UniProt P43405); experiment: Inhibition of recombinant human SYK expressed in insect Sf21 cells assessed as remaining activity at 10 uM preincubated for 15 mins followed by poly(Glu:Tyr) substrate addition for 30 mins in presence of [gamma-32P]ATP by […] assay
[9] = target: Mitogen-activated protein kinase 13 (Homo sapiens) (UniProt O15264); experiment: Inhibition of human SAPK4 assessed as remaining activity at 10 uM in presence of [gamma-32P]ATP by […] assay
[10] = target: Receptor tyrosine-protein kinase erbB-2 (Homo sapiens) (UniProt P04626); experiment: Inhibition of recombinant human ERBB2 expressed in insect cells assessed as remaining activity at 10 uM preincubated for 15 mins followed by poly(Glu:Tyr) substrate addition for 30 mins in presence of [gamma-32P]ATP by […] assay
Receptor tyrosine-protein kinase erbB-2 (Homo sapiens), sequence (P04626 whole entry): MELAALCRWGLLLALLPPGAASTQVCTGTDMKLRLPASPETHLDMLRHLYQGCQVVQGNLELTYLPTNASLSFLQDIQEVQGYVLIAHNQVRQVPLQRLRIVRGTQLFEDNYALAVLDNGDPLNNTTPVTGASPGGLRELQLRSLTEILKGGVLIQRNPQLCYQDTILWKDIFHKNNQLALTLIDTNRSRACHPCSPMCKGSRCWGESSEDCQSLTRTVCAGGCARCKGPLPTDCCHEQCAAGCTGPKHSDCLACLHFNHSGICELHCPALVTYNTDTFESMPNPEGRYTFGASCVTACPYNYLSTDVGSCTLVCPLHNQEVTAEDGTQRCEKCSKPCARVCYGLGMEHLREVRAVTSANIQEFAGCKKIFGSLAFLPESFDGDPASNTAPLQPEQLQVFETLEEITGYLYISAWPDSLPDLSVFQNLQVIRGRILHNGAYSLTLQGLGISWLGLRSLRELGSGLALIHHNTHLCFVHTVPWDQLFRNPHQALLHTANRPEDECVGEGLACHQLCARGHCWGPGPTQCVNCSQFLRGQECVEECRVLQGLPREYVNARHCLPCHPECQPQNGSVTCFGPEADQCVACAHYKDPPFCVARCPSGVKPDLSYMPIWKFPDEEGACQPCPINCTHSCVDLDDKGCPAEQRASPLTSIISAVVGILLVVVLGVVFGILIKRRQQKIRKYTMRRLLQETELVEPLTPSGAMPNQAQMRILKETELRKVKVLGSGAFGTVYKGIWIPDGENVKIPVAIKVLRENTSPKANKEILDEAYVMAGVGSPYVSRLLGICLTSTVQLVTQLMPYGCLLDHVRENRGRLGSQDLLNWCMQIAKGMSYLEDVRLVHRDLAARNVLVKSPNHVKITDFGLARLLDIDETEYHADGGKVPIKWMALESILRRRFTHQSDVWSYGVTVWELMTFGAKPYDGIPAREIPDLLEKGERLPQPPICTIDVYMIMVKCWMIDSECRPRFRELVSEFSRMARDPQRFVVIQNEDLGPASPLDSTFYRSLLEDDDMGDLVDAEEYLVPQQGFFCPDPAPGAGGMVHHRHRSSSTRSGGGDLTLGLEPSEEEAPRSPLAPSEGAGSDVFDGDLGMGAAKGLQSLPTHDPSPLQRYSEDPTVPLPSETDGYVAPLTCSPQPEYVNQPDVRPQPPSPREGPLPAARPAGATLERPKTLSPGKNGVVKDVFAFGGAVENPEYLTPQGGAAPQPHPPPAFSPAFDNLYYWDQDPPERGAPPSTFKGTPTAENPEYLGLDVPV

[11] = Solubility of the compound in PBS at pH 7.4 after 1 hr by HPLC-MS analysis; format: physicochemical
[12] = target: Tyrosine-protein kinase ZAP-70 (Homo sapiens) (UniProt P43403); experiment: Inhibition of recombinant human ZAP-70 expressed in insect Sf21 cells assessed as remaining activity at 10 uM preincubated for 15 mins followed by poly(Glu:Tyr) substrate addition for 30 mins in presence of [gamma-32P]ATP by […] assay
Tyrosine-protein kinase ZAP-70 (Homo sapiens), sequence (P43403 whole entry): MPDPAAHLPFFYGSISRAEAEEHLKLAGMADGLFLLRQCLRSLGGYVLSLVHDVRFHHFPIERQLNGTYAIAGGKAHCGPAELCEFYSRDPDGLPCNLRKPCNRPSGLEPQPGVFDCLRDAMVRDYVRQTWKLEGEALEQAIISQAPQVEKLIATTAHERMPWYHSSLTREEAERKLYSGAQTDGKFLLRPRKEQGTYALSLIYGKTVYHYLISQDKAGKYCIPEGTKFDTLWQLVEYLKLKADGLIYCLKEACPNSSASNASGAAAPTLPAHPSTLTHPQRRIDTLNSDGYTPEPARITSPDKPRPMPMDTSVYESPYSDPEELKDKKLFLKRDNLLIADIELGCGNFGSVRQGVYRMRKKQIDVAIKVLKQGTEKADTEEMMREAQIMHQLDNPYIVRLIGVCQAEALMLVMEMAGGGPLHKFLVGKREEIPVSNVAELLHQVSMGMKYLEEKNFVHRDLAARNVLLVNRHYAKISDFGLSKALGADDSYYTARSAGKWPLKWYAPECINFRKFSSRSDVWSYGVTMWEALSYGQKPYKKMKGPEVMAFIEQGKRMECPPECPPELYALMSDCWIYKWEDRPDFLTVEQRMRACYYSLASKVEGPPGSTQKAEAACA

[13] = target: T1, Receptor-type tyrosine-protein kinase FLT3 (Homo sapiens, UniProt P36888); experiment: biochemical; format: cell-based, Sf21
T1 sequence (P36888 whole entry): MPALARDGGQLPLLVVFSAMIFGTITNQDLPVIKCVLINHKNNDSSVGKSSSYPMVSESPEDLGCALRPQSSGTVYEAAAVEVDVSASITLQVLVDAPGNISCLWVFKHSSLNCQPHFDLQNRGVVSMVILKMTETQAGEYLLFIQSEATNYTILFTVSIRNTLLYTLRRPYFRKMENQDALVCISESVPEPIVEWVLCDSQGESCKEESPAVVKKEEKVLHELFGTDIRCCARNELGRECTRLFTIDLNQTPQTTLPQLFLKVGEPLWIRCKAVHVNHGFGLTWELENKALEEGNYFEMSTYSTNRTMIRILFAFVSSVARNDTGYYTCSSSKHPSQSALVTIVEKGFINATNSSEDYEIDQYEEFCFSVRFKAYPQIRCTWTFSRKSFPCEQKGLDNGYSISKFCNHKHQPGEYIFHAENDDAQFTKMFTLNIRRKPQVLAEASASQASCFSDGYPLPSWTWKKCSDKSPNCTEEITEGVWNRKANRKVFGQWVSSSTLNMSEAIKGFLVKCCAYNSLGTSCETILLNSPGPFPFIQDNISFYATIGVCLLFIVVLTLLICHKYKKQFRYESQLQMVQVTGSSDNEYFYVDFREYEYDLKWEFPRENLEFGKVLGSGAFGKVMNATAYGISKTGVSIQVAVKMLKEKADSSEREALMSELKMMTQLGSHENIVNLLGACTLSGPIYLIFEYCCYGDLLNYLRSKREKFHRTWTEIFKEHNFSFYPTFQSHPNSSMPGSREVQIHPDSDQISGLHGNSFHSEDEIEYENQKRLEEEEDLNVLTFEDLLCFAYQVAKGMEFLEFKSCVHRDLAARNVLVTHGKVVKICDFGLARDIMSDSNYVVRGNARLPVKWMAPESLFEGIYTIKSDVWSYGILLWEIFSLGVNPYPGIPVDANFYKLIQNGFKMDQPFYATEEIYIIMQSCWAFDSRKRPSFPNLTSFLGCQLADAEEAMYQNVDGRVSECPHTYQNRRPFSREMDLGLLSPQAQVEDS
Description: Inhibition of recombinant human FLT3 expressed in insect Sf21 cells preincubated for 15 mins followed by poly(Glu:Tyr) substrate addition for 30 mins in presence of [gamma-32P]ATP by TR-FRET assay

[14] = target: Protein kinase C alpha type (Homo sapiens) (UniProt P17252); experiment: Inhibition of recombinant human PKC-alpha expressed in insect Sf9 cells assessed as remaining activity at 10 uM preincubated for 15 mins followed by Histone substrate addition for 30 mins in presence of [gamma-32P]ATP by […] assay
[15] = target: Fibroblast growth factor receptor 3 (Homo sapiens) (UniProt P22607); experiment: Inhibition of recombinant human FGFR3 expressed in insect Sf21 cells assessed as remaining activity at 10 uM preincubated for 15 mins followed by poly(Glu:Tyr) substrate addition for 30 mins in presence of [gamma-32P]ATP by […] assay
Fibroblast growth factor receptor 3 (Homo sapiens), sequence (P22607 23-806 limits assumed): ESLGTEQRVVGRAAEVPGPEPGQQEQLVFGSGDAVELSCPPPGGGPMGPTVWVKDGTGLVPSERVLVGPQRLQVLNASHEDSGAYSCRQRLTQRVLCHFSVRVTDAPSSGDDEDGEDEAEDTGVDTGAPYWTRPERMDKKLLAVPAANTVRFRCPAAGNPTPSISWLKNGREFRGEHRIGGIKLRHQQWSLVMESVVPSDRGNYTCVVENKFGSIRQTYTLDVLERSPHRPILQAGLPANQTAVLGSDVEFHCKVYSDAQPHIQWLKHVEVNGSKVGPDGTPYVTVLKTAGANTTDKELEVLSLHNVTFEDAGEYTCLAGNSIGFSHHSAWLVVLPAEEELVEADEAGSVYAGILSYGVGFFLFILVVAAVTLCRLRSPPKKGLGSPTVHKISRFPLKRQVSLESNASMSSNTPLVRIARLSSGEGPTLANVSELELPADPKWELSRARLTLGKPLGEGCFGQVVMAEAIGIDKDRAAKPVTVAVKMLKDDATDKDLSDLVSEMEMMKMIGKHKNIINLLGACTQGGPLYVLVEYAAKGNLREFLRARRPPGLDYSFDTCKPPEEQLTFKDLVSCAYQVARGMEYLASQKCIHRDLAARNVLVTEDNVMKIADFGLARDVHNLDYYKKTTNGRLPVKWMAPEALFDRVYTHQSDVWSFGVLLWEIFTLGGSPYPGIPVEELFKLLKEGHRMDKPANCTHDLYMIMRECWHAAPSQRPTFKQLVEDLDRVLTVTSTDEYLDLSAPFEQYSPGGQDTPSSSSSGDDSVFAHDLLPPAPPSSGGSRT

[16] = Volume of distribution at steady state in Sprague-Dawley rat at 5 mg/kg, iv up to 24 hrs by LC/MS/MS analysis; format: ADME, organism-based; conditions: in vivo, read-out: Vdss
Angiopoietin-1 receptor = Angiopoietin-1 receptor (Homo sapiens, UniProt Q02763); experiment: Inhibition of human TIE2 assessed as remaining activity at 10 uM preincubated for 15 mins followed by substrate addition measured after 30 mins in presence of [gamma-32P]ATP by […] assay
Angiopoietin-1 receptor, sequence (Q02763 whole entry): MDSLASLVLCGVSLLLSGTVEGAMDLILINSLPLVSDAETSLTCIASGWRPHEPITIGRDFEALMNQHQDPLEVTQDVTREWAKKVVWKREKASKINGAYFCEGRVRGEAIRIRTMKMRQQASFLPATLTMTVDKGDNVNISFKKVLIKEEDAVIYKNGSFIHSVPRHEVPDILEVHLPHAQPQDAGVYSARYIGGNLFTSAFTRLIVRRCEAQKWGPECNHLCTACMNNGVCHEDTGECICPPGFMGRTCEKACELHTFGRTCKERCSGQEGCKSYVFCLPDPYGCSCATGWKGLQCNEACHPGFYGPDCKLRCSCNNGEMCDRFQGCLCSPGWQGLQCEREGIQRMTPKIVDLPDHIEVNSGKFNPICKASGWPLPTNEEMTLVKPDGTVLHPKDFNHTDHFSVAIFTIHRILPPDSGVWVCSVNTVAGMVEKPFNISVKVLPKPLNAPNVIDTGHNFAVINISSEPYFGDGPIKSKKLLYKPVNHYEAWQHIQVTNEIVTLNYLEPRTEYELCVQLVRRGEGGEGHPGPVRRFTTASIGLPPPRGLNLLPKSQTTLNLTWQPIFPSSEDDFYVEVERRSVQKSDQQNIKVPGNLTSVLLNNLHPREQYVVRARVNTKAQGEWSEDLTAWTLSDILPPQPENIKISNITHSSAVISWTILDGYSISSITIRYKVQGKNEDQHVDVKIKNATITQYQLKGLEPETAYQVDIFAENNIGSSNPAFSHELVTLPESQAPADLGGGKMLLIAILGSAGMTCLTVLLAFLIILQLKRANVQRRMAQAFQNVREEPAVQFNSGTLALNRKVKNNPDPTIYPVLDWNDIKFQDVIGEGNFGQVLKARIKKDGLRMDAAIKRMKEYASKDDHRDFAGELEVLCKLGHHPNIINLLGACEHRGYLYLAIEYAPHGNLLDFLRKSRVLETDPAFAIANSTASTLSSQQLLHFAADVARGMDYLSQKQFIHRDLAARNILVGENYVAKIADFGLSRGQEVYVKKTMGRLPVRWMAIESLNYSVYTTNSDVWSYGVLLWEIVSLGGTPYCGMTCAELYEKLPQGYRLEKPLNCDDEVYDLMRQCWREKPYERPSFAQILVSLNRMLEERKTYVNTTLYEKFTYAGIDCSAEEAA

CNCCOc1ccc(-c2sc3nc(-c4cccs4)nc(NN4C(=O)C=C(C)C4=O)c3c2C)cc1.Cl
Activity [1]: 58% | Activity [2]: 92% | Activity [3]: 35% | Activity [4]: 101% | Activity [5]: 113% | Activity [6]: 67% | Activity [7]: 42% | GI50 (cells): 0.564 µM | Activity [8]: 80% | Activity [9]: 93% | Activity [10]: 89% | solubility at 1 h [11]: 2.96 µM | Activity [12]: 101% | IC50 [13]: 0.00803 µM | Activity [14]: 81% | Activity [15]: 72% | Vd [16]: 8.22 L/kg | Activity (Angiopoietin-1 receptor): 16%
